This note sets out measurements from patent publication US20140120083A1, “TREATMENT OF CANCERS USING PI3 KINASE ISOFORM MODULATORS” (INFINITY PHARMACEUTICALS, INC., priority 2012, published 2014).

For orientation: IC50 means the midpoint of a concentration-inhibition curve. Higher therefore signals weaker potency in that assay.

Common to all, as to type: biochemical
The target of experiment [1] is T1, PI3K γ (Homo sapiens, UniProt P48736).
T1 construct: purchased Sigma
Kind of experiment: In vitro IC50, PI3K γ. An excerpt:
(§1) An exemplary system is PI 3-Kinase (human) HTRF™ Assay from Upstate.

Experiment [2] deals with T2, PI3K α (Homo sapiens, UniProt P42336).
T2 construct: purchased Upstate
T2 sequence (P42336 whole entry): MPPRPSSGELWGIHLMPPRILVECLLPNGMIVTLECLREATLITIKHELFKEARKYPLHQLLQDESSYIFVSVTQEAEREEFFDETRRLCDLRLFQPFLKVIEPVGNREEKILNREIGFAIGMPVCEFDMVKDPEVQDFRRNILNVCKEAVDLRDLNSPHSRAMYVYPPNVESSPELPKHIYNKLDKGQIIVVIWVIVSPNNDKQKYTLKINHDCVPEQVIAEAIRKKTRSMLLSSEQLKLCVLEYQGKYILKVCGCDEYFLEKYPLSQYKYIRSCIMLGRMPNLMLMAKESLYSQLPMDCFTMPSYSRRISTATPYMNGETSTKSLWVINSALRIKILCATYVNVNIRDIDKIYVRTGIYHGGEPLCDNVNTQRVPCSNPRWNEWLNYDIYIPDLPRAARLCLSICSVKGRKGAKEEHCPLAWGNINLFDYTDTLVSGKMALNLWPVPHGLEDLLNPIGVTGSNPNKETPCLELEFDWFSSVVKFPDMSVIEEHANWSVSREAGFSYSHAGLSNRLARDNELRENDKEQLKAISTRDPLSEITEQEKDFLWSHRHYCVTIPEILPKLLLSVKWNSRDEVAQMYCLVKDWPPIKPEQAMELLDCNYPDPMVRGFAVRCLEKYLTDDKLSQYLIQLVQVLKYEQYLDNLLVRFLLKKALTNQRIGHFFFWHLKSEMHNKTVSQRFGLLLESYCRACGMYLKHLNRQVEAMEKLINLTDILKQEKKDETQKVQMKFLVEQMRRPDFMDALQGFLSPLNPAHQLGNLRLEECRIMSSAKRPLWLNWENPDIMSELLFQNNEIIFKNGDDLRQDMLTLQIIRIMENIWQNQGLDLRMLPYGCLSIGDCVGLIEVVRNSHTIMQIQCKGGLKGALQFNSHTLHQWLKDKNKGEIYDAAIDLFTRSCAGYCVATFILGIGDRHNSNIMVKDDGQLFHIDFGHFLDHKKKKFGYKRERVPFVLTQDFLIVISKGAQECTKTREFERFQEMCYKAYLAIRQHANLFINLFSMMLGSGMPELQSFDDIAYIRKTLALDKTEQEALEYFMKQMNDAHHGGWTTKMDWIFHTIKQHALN
T2 sequence (P27986 whole entry partner): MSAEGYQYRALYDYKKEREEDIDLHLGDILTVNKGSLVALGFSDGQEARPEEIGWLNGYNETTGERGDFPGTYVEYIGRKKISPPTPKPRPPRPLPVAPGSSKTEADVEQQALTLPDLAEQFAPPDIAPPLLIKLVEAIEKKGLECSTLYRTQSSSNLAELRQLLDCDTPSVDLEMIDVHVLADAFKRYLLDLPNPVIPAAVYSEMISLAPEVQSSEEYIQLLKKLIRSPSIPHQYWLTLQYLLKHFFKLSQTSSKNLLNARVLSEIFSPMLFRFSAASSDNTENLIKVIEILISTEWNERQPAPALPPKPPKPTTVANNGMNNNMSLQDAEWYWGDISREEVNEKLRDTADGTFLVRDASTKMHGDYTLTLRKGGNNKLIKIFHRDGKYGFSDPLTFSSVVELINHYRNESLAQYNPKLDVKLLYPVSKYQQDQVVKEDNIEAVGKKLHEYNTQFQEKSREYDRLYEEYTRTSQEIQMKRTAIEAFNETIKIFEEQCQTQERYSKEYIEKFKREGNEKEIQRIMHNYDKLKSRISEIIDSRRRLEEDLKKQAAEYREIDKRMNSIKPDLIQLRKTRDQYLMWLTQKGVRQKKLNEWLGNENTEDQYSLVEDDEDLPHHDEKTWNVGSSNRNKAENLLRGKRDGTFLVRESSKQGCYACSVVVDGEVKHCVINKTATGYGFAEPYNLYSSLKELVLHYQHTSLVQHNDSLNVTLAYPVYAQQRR
Description: In vitro IC50, PI3K α.
Text: as §1

In experiment [3] the target is PI3K β (Homo sapiens, UniProt P42338). Description: In vitro IC50, PI3K β.
PI3K β, sequence (P42338 whole entry): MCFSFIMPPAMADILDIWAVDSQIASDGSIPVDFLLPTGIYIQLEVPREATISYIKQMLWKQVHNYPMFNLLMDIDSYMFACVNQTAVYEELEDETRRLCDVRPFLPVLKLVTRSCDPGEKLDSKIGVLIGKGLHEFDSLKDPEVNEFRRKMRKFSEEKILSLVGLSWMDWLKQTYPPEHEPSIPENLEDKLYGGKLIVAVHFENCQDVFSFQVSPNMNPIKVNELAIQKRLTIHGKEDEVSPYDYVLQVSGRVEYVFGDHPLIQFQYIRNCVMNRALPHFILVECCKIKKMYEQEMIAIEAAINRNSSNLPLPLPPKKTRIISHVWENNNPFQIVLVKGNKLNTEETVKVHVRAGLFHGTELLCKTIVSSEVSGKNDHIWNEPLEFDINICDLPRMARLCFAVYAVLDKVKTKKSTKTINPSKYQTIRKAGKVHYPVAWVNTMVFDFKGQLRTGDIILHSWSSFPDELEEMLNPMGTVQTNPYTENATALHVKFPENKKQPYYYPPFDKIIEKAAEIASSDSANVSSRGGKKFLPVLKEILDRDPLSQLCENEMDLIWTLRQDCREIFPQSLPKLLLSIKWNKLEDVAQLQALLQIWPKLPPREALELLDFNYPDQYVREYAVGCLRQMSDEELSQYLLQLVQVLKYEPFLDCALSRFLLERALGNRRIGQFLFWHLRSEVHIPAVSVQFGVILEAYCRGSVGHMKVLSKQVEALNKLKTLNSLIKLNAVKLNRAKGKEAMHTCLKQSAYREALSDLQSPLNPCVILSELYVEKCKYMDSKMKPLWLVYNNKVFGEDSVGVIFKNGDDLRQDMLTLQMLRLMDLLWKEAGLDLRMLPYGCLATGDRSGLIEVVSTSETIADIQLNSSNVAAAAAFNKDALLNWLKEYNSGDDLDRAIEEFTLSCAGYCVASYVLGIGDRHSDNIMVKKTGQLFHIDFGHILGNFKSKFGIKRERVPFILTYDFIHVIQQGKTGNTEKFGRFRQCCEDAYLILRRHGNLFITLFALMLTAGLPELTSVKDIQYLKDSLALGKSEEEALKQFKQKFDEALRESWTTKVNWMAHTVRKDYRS
Text: as §1

Experiment [4] addresses PI3K δ (Homo sapiens, UniProt O00329). Description: In vitro IC50, PI3K δ. Details: purchased Upstate.
Text: as §1

Bounds are passed on as bounds.

T1 sequence (P48736 whole entry): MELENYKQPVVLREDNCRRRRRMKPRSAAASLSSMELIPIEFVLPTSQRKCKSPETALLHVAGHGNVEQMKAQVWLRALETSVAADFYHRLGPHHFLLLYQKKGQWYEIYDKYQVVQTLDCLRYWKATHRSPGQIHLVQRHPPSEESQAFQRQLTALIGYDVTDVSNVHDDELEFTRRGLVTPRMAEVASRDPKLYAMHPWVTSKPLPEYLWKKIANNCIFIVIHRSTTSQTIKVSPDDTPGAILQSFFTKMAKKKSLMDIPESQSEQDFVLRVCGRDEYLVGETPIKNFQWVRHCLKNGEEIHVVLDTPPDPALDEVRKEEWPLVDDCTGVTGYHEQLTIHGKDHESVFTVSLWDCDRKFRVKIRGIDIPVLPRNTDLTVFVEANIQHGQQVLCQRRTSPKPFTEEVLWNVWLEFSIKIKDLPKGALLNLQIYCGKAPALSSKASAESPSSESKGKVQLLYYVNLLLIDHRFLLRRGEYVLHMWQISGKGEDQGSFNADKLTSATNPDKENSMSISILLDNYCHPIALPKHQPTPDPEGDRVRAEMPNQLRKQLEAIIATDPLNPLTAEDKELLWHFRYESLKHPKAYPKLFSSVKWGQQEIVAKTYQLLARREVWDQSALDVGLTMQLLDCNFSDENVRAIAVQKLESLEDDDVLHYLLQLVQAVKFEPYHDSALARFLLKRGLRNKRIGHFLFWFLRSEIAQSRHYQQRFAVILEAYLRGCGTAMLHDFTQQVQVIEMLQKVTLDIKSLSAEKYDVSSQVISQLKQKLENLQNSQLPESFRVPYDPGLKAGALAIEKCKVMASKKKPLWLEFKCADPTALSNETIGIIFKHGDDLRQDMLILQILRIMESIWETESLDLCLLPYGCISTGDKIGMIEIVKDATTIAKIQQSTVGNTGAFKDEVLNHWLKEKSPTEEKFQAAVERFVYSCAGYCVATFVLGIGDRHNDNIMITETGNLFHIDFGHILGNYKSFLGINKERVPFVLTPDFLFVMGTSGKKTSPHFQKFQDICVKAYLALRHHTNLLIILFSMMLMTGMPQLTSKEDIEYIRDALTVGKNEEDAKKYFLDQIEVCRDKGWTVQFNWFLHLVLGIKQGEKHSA
PI3K δ, sequence (O00329 whole entry): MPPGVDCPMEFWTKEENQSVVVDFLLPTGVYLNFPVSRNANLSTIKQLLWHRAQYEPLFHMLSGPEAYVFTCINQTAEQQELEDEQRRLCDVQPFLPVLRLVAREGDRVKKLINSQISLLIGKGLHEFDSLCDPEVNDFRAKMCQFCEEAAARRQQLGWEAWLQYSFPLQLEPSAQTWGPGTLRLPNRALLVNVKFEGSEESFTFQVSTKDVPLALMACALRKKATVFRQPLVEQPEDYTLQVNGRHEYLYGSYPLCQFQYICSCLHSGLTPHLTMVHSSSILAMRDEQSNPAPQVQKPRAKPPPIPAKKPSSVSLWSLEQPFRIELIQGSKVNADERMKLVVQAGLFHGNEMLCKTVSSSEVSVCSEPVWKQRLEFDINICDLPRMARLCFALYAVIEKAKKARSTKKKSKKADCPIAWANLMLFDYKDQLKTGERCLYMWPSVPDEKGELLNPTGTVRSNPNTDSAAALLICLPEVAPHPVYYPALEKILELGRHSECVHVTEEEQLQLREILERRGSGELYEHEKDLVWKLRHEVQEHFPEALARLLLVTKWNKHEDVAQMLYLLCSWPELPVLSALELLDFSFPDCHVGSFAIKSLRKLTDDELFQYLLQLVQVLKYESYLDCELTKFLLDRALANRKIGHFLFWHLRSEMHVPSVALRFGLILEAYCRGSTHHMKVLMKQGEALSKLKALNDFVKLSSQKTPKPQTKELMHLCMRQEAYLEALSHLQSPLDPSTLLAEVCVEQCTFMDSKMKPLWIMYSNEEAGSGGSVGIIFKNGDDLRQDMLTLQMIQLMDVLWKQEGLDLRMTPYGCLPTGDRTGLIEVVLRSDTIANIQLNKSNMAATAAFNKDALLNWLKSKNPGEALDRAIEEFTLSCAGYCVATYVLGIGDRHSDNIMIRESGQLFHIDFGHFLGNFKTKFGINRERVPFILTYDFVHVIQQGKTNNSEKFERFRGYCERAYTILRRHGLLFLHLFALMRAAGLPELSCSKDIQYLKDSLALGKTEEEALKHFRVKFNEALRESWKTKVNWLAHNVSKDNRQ
PI3K δ, sequence (P27986 whole entry partner): as the sequence (P27986 whole entry partner) above

Turning to `Cc1ccccc1-n1c(Cn2nc(/C=C/C(N)=O)c3c(N)ncnc32)cc2cccc(C)c2c1=O` [Compound 174], the IC50 in experiment [1] is below 0.1 µM; in experiment [2], above 10 µM; in experiment [3] it was below 10 µM; in experiment [4], below 0.1 µM.
As to `Cc1cccc2cc(Cn3nc(-c4ccc(F)c(O)c4)c4c(N)ncnc43)n(C3CCCC3)c(=O)c12` [Compound 64], the IC50 in experiment [1] is below 0.1 µM; in experiment [2] it was above 10 µM; in experiment [3], above 10 µM; in experiment [4], below 0.1 µM.
With `CC(=O)Nc1nc2ccc(-c3nn(Cc4cc5cccc(C)c5c(=O)n4-c4ccccc4)c4ncnc(N)c34)cc2s1` [Compound 177], the IC50 in experiment [1] was below 0.1 µM; in experiment [2], below 1 µM; in experiment [3], below 10 µM; in experiment [4] it was below 0.1 µM.
Regarding `Cc1cccc2cc(Cn3nc(I)c4c(N)ncnc43)n(C3CC3)c(=O)c12` [Compound 86], the IC50 was below 0.1 µM in experiment [1], below 10 µM in experiment [2], below 10 µM in experiment [3] and below 0.1 µM in experiment [4].
As to `COc1cc(-c2nn(Cc3cc4cccc(C)c4c(=O)n3-c3ccccc3F)c3ncnc(N)c23)ccc1Cl` [Compound 22], the IC50 in experiment [1] was below 1 µM; in experiment [2] it was above 10 µM; in experiment [3] it was above 10 µM; in experiment [4] it was below 10 µM.
Consider `Cc1cccc2cc([C@H](C)Nc3ncnc4[nH]nc(C(N)=O)c34)n(-c3ccccc3)c(=O)c12` [Compound 256], for which the IC50 was below 0.1 µM in experiment [1], below 10 µM in experiment [2], below 0.1 µM in experiment [3] and below 0.1 µM in experiment [4].
On to `Cc1ccccc1-n1c(Cn2nc(C(N)=O)c3c(N)ncnc32)cc2cccc(C)c2c1=O` [Compound 298], for which the IC50 in experiment [1] was below 1 µM; in experiment [2] it was above 10 µM; in experiment [3], below 10 µM; in experiment [4] it was below 1 µM.
For `Cc1ccccc1-n1c(Cn2nc(C(=O)NO)c3c(N)ncnc32)cc2cccc(C)c2c1=O` [Compound 300], the IC50 is below 1 µM in experiment [1], above 10 µM in experiment [2], below 10 µM in experiment [3] and below 1 µM in experiment [4].
`Cc1cccc2cc([C@H](C)Nc3ncnc4[nH]c(Cl)nc34)n(C3CC3)c(=O)c12` [Compound 280]: the IC50 in experiment [1], in experiment [2], in experiment [3] and in experiment [4] was above 10 µM in each case.
`Cc1cccc2cc(Cn3nc(C#C[C@@H](C)O)c4c(N)ncnc43)n(C(C)C)c(=O)c12` [Compound 61]: the IC50 in experiment [1] was below 10 µM; in experiment [2] it was above 10 µM; in experiment [3], below 10 µM; in experiment [4], below 0.1 µM.
As to `Cc1cccc2cc(Cn3nc(C#C[C@@H](C)O)c4c(N)ncnc43)n(-c3ccccc3O)c(=O)c12` [Compound 91], the IC50 in experiment [1] is below 10 µM; in experiment [2] it was above 10 µM; in experiment [3] it was above 10 µM; in experiment [4], below 0.1 µM.
In the case of `C[C@H](Nc1ncnc2[nH]cnc12)c1cc2cccc(Cl)c2c(=O)n1C1CC1` [Compound 270], the IC50 is below 0.1 µM in experiment [1], below 1 µM in experiment [2], below 0.1 µM in experiment [3] and below 0.1 µM in experiment [4].
On to `Cc1ccccc1-n1c(Cn2nc(C#C[C@@H](C)O)c3c(N)ncnc32)cc2cccc(C)c2c1=O` [Compound 37], for which the IC50 in experiment [1] was below 10 µM; in experiment [2], above 10 µM; in experiment [3] it was above 10 µM; in experiment [4], below 0.1 µM.
Take `CCc1ccccc1-n1c(Cn2nc(-c3cn[nH]c3)c3c(N)ncnc32)cc2cccc(C)c2c1=O` [Compound 190]: the IC50 is below 0.1 µM in experiment [1], below 10 µM in experiment [2], below 10 µM in experiment [3] and below 0.1 µM in experiment [4].
Consider `Cc1cccc2cc(Cn3nc(-c4cc(O)cc(F)c4)c4c(N)ncnc43)n(-c3ccccc3OCCN3CCOCC3)c(=O)c12` [Compound 108], for which the IC50 is below 1 µM in experiment [1], below 10 µM in experiment [2], below 10 µM in experiment [3] and below 0.1 µM in experiment [4].
Regarding `Cc1cccc2cc(Cn3nc(C#C[C@@H](C)O)c4c(N)ncnc43)n(-c3ccccc3Cl)c(=O)c12` [Compound 98], the IC50 in experiment [1] is below 1 µM; in experiment [2] it was above 10 µM; in experiment [3], above 10 µM; in experiment [4], below 0.1 µM.
Consider `Cc1cccc2cc(Cn3nc(-c4cccc(F)c4)c4c(N)ncnc43)n(-c3ccccc3F)c(=O)c12` [Compound 40], for which the IC50 in experiment [1] was below 10 µM; in experiment [2], above 10 µM; in experiment [3] it was above 10 µM; in experiment [4] it was below 10 µM.
Take `Cc1cccc2cc([C@H](C)Nc3ncnc4[nH]cnc34)n(C3CCC3)c(=O)c12` [Compound 198]: the IC50 in experiment [1] is below 0.1 µM; in experiment [2], below 10 µM; in experiment [3] it was below 10 µM; in experiment [4], below 0.1 µM.
For the compound `Nc1ncnc2c1c(-c1cc(O)cc(F)c1)nn2Cc1cc2cccc(Cl)c2c(=O)n1C1CC1` [Compound 142], the IC50 in experiment [1], in experiment [2], in experiment [3] and in experiment [4] was below 0.1 µM each time.
On to `Cc1cccc2cc(Cn3nc(/C=C4/CCNC4=O)c4c(N)ncnc43)n(-c3ccccc3F)c(=O)c12` [Compound 172], for which the IC50 was above 10 µM in experiment [1], above 10 µM in experiment [2], above 10 µM in experiment [3] and below 10 µM in experiment [4].
As for `Cc1cccc2cc(Cn3nc(-c4ccc(F)c(O)c4)c4c(N)ncnc43)n(C(C)C)c(=O)c12` [Compound 67], the IC50 is below 0.1 µM in experiment [1], above 10 µM in experiment [2], below 10 µM in experiment [3] and below 0.1 µM in experiment [4].
In the case of `Cc1cccnc1-n1c(Cn2nc(-c3cccc(O)c3)c3c(N)ncnc32)cc2cccc(C)c2c1=O` [Compound 73], the IC50 was below 1 µM in experiment [1], above 10 µM in experiment [2], above 10 µM in experiment [3] and below 0.1 µM in experiment [4].
On to `Cc1cccc2cc(Cn3nc(-c4cccc(O)c4)c4c(N)ncnc43)n(C3CCCC3)c(=O)c12` [Compound 58], for which the IC50 in experiment [1] was below 1 µM; in experiment [2] it was above 10 µM; in experiment [3], below 10 µM; in experiment [4], below 0.1 µM.
For `CC(=O)Nc1nc2cc(-c3nn(Cc4cc5cccc(C)c5c(=O)n4-c4ccccc4C)c4ncnc(N)c34)ccc2o1` [Compound 251] the same measures were below 0.1 µM, below 10 µM, below 1 µM and below 0.1 µM.
As to `Cc1cccc2cc(Cn3nc(-c4cc(O)cc(F)c4)c4c(N)ncnc43)n(C3CCCC3)c(=O)c12` [Compound 63], the IC50 in experiment [1] was below 0.1 µM; in experiment [2], below 10 µM; in experiment [3], below 10 µM; in experiment [4], below 0.1 µM.
`Cc1cccc2cc(Cn3nc(I)c4c(N)ncnc43)n(C3CCC3)c(=O)c12` [Compound 105]: the IC50 in experiment [1] is below 10 µM; in experiment [2], above 10 µM; in experiment [3], above 10 µM; in experiment [4], below 0.1 µM.
As for `COc1ccccc1-n1c(Cn2nc(C#C[C@@H](C)O)c3c(N)ncnc32)cc2cccc(C)c2c1=O` [Compound 80], the IC50 in experiment [1] is below 1 µM; in experiment [2] it was above 10 µM; in experiment [3] it was above 10 µM; in experiment [4], below 0.1 µM.
